# Source: patent publication US20260207621A1 (Vividion Therapeutics, Inc., priority 2022, published 2026)
# Test system: Nrf2
# Assay: Nrf2 antagonism assay: ARE luciferase reporter in KYSE-70 cells
# Assay type: cell-based
# Settings: Homo sapiens, KYSE-70, KYSE-70 cells, positive Imax corresponds to Nrf2 antagonism, read-out: KYSE70 Cellular ARE Luciferase Imax (%)
# From the text: NRF2 binds to a promoter region, antioxidant response element (ARE), to initiate expression of multiple genes. ARE luciferase reporter assays are used to test whether a ligand can activate or repress the expression of target genes using luciferase as a reporter gene.
# KYSE-70 is an esophageal squamous cell carcinoma cell line with a Nrf2 mutation at amino acid position W24C. This mutation lowers the affinity between the E3 ligase that includes KEAP1 and Nrf2, resulting in a state in which the synthesis rate of new Nrf2 is faster than the E3's degradation rate of Nrf2, resulting in a “Nrf2 high” state. In KYSE-70 cells, genes are inserted directly after the ARE that trigger the expression of luciferase. Without a NRF2 antagonist in this modified KYSE70 cell line which has an inherently “NRF2 high state”, luciferase is expressed, and a signal is observed.
# Nrf2 antagonists bind at C151 of KEAP1 and stabilize the E3 which results in an increased degradation rate of Nrf2. Increased degradation of Nrf2 results in less expression of luciferase, and therefore a less intense signal.
# An IC50 is generated from the dose-response curve and an Imax. A positive Imax corresponds to Nrf2 antagonism. Imax >90% correlates with in vivo tumor grown inhibition. Compounds with Imax >50% were included in this description.
row,Compound,Emax [%]
1,"C=CC(=O)N1CC2(CC2)OCC1(C)c1cc(Cl)cc(-c2ncnc(N)n2)c1 (single isomer, unassigned) [Compound 160, 1-(6-(3-(4-amino-1,3,5-triazin-2-yl)-5-chlorophenyl)-6-methyl-4-oxa-7-azaspiro[2.5]octan-7-yl)prop-2-en-1-one]",91
2,"C=CC(=O)N1C[C@@H](F)COC[C@H]1c1cc(Cl)nc(-c2cc(N)ncn2)c1 [Compound 198, 1-((3R,6R)-3-(2-(6-aminopyrimidin-4-yl)-6-chloropyridin-4-yl)-6-fluoro-1,4-oxazepan-4-yl)prop-2-en-1-one]",93
3,"C=CC(=O)N1CCOCC1c1cc(Cl)cc(-c2cncc(C)n2)c1 (single isomer, unassigned) [Compound 59, 1-(3-(3-chloro-5-(6-methylpyrazin-2-yl)phenyl)morpholino)prop-2-en-1-one]",81
4,"C=CC(=O)N1CCOCC1c1cc(Cl)cc(-c2cnnc(OC)c2)c1 (single isomer, unassigned) [Compound 56, 1-(3-(3-chloro-5-(6-methoxypyridazin-4-yl)phenyl)morpholino)prop-2-en-1-one]",74
5,"C=CC(=O)N1[C@H](c2cc(Cl)nc(-c3ccn4ccnc4c3)c2)COC[C@H]1C(F)F (single isomer, unassigned) [Compound 194]",84
6,"C=CC(=O)N1[C@H](C)COC[C@H]1c1cc(Cl)cc(-c2ccn(C)c(=O)c2)c1 (single isomer, unassigned) [Compound 24]",73
7,"[2H]c1nc(N)nc(-c2cc(Cl)cc([C@@H]3COCCN3C(=O)C=C)c2)n1 (single isomer, unassigned) [Compound 208]",94
8,"C=CC(=O)N1[C@H](c2cc(Cl)nc(-c3cc(C)ncn3)c2)COC[C@H]1C(F)F [Compound 201, 1-((3R,5S)-3-(2-chloro-6-(6-methylpyrimidin-4-yl)pyridin-4-y1)-5-(difluoromethyl)morpholino)prop-2-en-1-one]",93
9,"C=CC(=O)N1CCOC[C@H]1c1cc(Cl)cc(-c2cn[nH]c2)c1 (single isomer, unassigned) [Compound 117]",84
10,"C=CC(=O)N1CCN(C(=O)CC#N)C[C@H]1c1cc(Cl)cc(-c2ccnc(NC(=O)CC#N)n2)c1 (single isomer, unassigned) [Compound 189]",79
11,"C=CC(=O)N1CCOCCC1c1cc(Cl)cc(-c2ncnc(N)n2)c1 (racemic) [Compound 152, 1-(5-(3-(4-amino-1,3,5-triazin-2-yl)-5-chlorophenyl)-1,4-oxazepan-4-yl)prop-2-en-1-one]",78
12,"C=CC(=O)N1CCOC[C@H]1c1cc(Cl)cc(-c2ncnc(N)n2)c1 (single isomer, unassigned) [Compound 55]",93
13,"C=CC(=O)N1[C@H](C(N)=O)COC[C@H]1c1cc(Cl)nc(-c2ccc(F)c(C(N)=O)c2)c1 (single isomer, unassigned) [Compound 181]",66
14,"C=CC(=O)N1CCOCC1c1cc(Cl)nc(-c2cc(N)ncn2)c1 (single isomer, unassigned) [Compound 119, 1-(3-(2-(6-aminopyrimidin-4-yl)-6-chloropyridin-4-yl)morpholino)prop-2-en-1-one]",96
15,"C=CC(=O)N1CCOC[C@H]1c1cc(Cl)cc(-c2ncnc(NCCO)n2)c1 (single isomer, unassigned) [Compound 219]",81
16,"C=CC(=O)N1CCOC[C@H]1c1cc(Cl)cc(-n2cc(C)cn2)c1 (single isomer, unassigned) [Compound 118]",63
17,"C=CC(=O)N1CC(C)(C)OCC1c1cc(Cl)nc(-c2ccnc(N)n2)c1 (single isomer, unassigned) [Compound 99, 1-(5-(2-(2-aminopyrimidin-4-yl)-6-chloropyridin-4-y1)-2,2-dimethylmorpholino)prop-2-en-1-one]",82

row,Compound,Emax [%]
1,"C=CC(=O)N1CCOCC1c1cc(Cl)cc(-c2nccc3[nH]ccc23)c1 (single isomer, unassigned) [Compound 111, 1-(3-(3-chloro-5-(1H-pyrrolo[3,2-c]pyridin-4-yl)phenyl)morpholino)prop-2-en-1-one]",90
2,"C=CC(=O)N1CCOCC1(C)c1cc(Cl)cc(-c2ccc(F)c(C(N)=O)c2)c1 (single isomer, unassigned) [Compound 114, 3′-(4-acryloyl-3-methylmorpholin-3-yl)-5′-chloro-4-fluoro-[1,1′-biphenyl]-3-carboxamide]",87
3,"C=CC(=O)N1CCOC[C@H]1c1cc(Cl)cc(-c2cnnc(N)c2)c1 (single isomer, unassigned) [Compound 141]",89
4,"C=CC(=O)N1CCOC[C@H]1c1cc(Cl)cc(-c2c[nH]c(=O)[nH]2)c1 (single isomer, unassigned) [Compound 184]",72
5,"C=CC(=O)N1CCOCC1(C)c1cc(Cl)cc(-c2ncnc(N)n2)c1 (single isomer, unassigned) [Compound 112, 1-(3-(3-(4-amino-1,3,5-triazin-2-yl)-5-chlorophenyl)-3-methylmorpholino)prop-2-en-1-one]",95
6,"C=CC(=O)N1CCOCC1c1cc(Cl)nc(-c2ncnc(N)n2)c1 (single isomer, unassigned) [Compound 146, 1-(3-(2-(4-amino-1,3,5-triazin-2-yl)-6-chloropyridin-4-yl)morpholino)prop-2-en-1-one]",71
7,"Nc1ncnc(-c2cc(Cl)cc([C@@H]3COCCN3C(=O)C=C3CC3)c2)n1 (single isomer, unassigned) [Compound 293]",54
8,"C=CC(=O)N1CCN(C(=O)C2CC2)C[C@H]1c1cc(Cl)cc(-c2cc(N)ncn2)c1 (single isomer, unassigned) [Compound 197]",87
9,"C=CC(=O)N1CCOC[C@H]1c1cc(Cl)cc(-c2nc(N)nc(Cl)n2)c1 (single isomer, unassigned) [Compound 199]",92
10,"C=CC(=O)N1CCOC[C@H]1c1cc(Cl)cc(-c2cnn(C3CC3)c2)c1 (single isomer, unassigned) [Compound 115]",74
11,"C=CC(=O)N1CCN(C(C)=O)C[C@H]1c1cc(Cl)cc(-c2nnn(C)n2)c1 (single isomer, unassigned) [Compound 22]",64
12,"C=CC(=O)N1[C@H](C)COC[C@H]1c1cc(Cl)nc(-c2ccnc(C)n2)c1 (single isomer, unassigned) [Compound 142]",81
13,"C=CC(=O)N1CCOCC1c1cc(Cl)nc(-c2ccnnc2)c1 (single isomer, unassigned) [Compound 30, 1-(3-(2-chloro-6-(pyridazin-4-yl)pyridin-4-yl)morpholino)prop-2-en-1-one]",72
14,"C=CC(=O)N1CCOCC1(C)c1cc(Cl)cc(-c2ccnc(N)n2)c1 (single isomer, unassigned) [Compound 113, 1-(3-(3-(2-aminopyrimidin-4-yl)-5-chlorophenyl)-3-methylmorpholino)prop-2-en-1-one]",94
15,"C=C(F)C(=O)N1CCOC[C@H]1c1cc(Cl)cc(-c2ncnc(N)n2)c1 (single isomer, unassigned) [Compound 297]",58
16,"C=CC(=O)N1[C@H](c2cc(Cl)nc(-c3cc(N)ncn3)c2)COC[C@H]1C(F)F (single isomer, unassigned) [Compound 202]",94
17,"C=CC(=O)N1[C@H](C)COC[C@H]1c1cc(Cl)cc(-c2ccnc(N)n2)c1 (single isomer, unassigned) [Compound 110]",93
